Here are results for 4 compounds from patent publication US20200172913A1, “PEPTIDES AND NANOPARTICLES FOR INTRACELLULAR DELIVERY OF VIRUS” (priority 2017, published 2020).

Read-outs that look alike come from different tables or passages of the source. *1 amine or outer side, *2 acyl side, *3 side chain or, on linkers, in order; H or OH if unused. Where a SMILES comes first, the peptide text is derived from it. Cysteamide = C(CS[*:3])N[*:1]

For one series, the system named is HUVEC cell lines. The series can be described thus: Cytotoxicity of AAV-CPP complexes, XTT assay. The format is cell-based. To be noted: CPP concentration of 500 μM, AAV-6-βGal MOI of 300, XTT after 2 days. The procedure:
The cytoxicity of the AAV-CPP complexes was evaluated on HUVEC cell lines. AAV encoding beta galactosidase (AAV-6-βGal) at MOI of 300 were preincubated in PBS with increasing concentration of CPPs ranging from 1 to 500 μM for 30 min. Cells were treated with either free AAV (No CPP) or CPP/AAV complexes for 4 h, then the medium was replaced with fresh medium. Cytotoxicity of AAV-CPP complexes was determined using the XTT assay after 2 days. […] A low cytotoxicity of 5% for PEP-1 and PEP-2 and 8% for Pant were obtained for a CPP concentration of 500 μM.
A general note: Formazan colour is commonly taken as a measure of viable cells.

The test system of series [1] is HepG2 cells. In words: AAV-2 transfection of HepG2 cells with TAT-HA2 or LAH4 peptides (Liu et al., Molecular Therapy, 2014). To be noted: 200 μM, GFP-positive cells. The format is cell-based, human.
The test system of series [2] is HepG2 cells. The following applies: AAV-2, HepG2, Liu et al., cited from earlier work.
The target of series [3] is Adeno-associated virus AAV-2 encoding green fluorescent protein (adeno-associated virus serotype 2) (UniProt P03135). The series can be described thus: cell-based or functional assay.

As to `CC(=O)N[C@@H](CCCCN)C(=O)N[C@@H](CCC(=O)O)C(=O)N[C@H](C(=O)N[C@@H](Cc1c[nH]c2ccccc12)C(=O)N[C@@H](Cc1c[nH]c2ccccc12)C(=O)N[C@@H](CCC(=O)O)C(=O)N[C@H](C(=O)N[C@@H](Cc1c[nH]c2ccccc12)C(=O)N[C@@H](Cc1c[nH]c2ccccc12)C(=O)N[C@H](C(=O)N[C@@H](CCC(=O)O)C(=O)N[C@@H](Cc1c[nH]c2ccccc12)C(=O)N[C@@H](CO)C(=O)N[C@@H](CCC(N)=O)C(=O)N1CCC[C@H]1C(=O)N[C@@H](CCCCN)C(=O)N[C@@H](CCCCN)C(=O)N[C@@H](CCCCN)C(=O)N[C@@H](CCCNC(=N)N)C(=O)N[C@@H](CCCCN)C(=O)N[C@H](C(=O)NCCS)C(C)C)[C@@H](C)O)[C@@H](C)O)[C@@H](C)O` [PEP-1] (Ac-KETWWETWWTEWSQPKKKRKV-Cysteamide), the cytotoxicity in the series with HUVEC cell lines is given as 5%. Still for that read-out and setting: next, `CC(=O)N[C@@H](CCCCN)C(=O)N[C@@H](CCC(=O)O)C(=O)N[C@H](C(=O)N[C@@H](Cc1c[nH]c2ccccc12)C(=O)N[C@@H](Cc1ccccc1)C(=O)N[C@@H](CCC(=O)O)C(=O)N[C@H](C(=O)N[C@@H](Cc1c[nH]c2ccccc12)C(=O)N[C@@H](Cc1ccccc1)C(=O)N[C@H](C(=O)N[C@@H](CCC(=O)O)C(=O)N[C@@H](Cc1c[nH]c2ccccc12)C(=O)N[C@@H](CO)C(=O)N[C@@H](CCC(N)=O)C(=O)N1CCC[C@H]1C(=O)N[C@@H](CCCCN)C(=O)N[C@@H](CCCCN)C(=O)N[C@@H](CCCCN)C(=O)N[C@@H](CCCNC(=N)N)C(=O)N[C@@H](CCCCN)C(=O)N[C@H](C(=O)NCCS)C(C)C)[C@@H](C)O)[C@@H](C)O)[C@@H](C)O` [PEP-2] (Ac-KETWFETWFTEWSQPKKKRKV-Cysteamide): 5%.

Regarding “KKALLALALHHLAHLALHLALALKKAC [LAH4, a leucine- and histidine-rich peptide]”, the “fold lower than the results obtained with the ADGN peptides” value with HepG2 cells [1] stood at 2 fold. The values for the GFP-positive cells in the series with HepG2 cells [2] (200 μM concentration of peptide) and with HepG2 cells [2] (concentration of CPPs) were roughly 45% and 12%, respectively. In the case of PEP-1-DOPA (peptide), the efficacy (GFP expressing 293 T cells) after incubation of the complexes in 50% serum in series [3] turned out to be 30 % reduction.
